Data: patent US10807952B2 (Achillion Pharmaceuticals, Inc., priority 2015, dated 2020)
pIC50: −log10 of the molar value. Where a name gives a salt, the structure may show the parent alone.

Molecular target: Human Factor D (Homo sapiens (Human), UniProt P00746)
Experiment: Human Factor D assay (Z-L-Lys-SBzl / DTNB, absorbance at 405 nm)
Assay type: biochemical
Details: Human Factor D 80 nM, assay of Example 13
Method: Human Factor D (purified from human serum, Complement Technology, Inc.) at 80 nM final concentration was incubated with test compound at various concentrations for 5 minutes at room temperature in 50 mM Tris, 1M NaCl, pH 7.5. A synthetic substrate Z-L-Lys-SBzl and DTNB (Ellman's reagent) were added to final concentrations of 100 μM each. […] IC50 values were calculated by nonlinear regression of complement Factor D reaction rates as a function of test compound concentration.

Chain of Human Factor D (P00746 26-253): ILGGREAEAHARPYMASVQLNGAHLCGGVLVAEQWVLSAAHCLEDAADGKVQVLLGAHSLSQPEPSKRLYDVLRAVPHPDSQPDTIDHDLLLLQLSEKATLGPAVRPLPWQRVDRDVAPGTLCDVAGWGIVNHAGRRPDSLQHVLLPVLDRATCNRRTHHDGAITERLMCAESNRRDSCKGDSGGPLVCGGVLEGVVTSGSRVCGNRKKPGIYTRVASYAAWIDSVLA

With `NC(=O)c1nn(CC(=O)N2C[C@H](F)C[C@H]2C(=O)Nc2cccc(-c3ccc4nonc4c3)c2F)c2ccccc12` [Compound 68, 1-(2-((2S,4R)-2-(3-(benzo[c][1,2,5]oxadiazol-5-yl)-2-fluorophenyl-carbamoyl)-4-fluoropyrrolidin-1-yl)-2-oxoethyl)-1H-indazole-3-carboxamide] the pIC50 (Table 3) was > 6.00.
In the case of `CC(=O)c1cn(CC(=O)N2C[C@H](F)C[C@H]2C(=O)Nc2cccc(Br)n2)c2ccc(S(C)(=O)=NC(=O)OC(C)(C)C)cc12` (stereo partly drawn) [Compound 69, tert-butyl ((3-acetyl-1-(2-((2S,4R)-2-((6-bromopyridin-2-yl)carbamoyl)-4-fluoropyrrolidin-1-yl)-2-oxoethyl)-1H-indol-5-yl)(methyl)(oxo)-[…]^6-sulfanylidene)-[…]^4-azanecarboxylate e( )], the pIC50 (Table 3) was > 6.00.
`CC(=O)c1cn(CC(=O)N2C[C@H](F)C[C@H]2C(=O)Nc2cccc(Br)n2)c2ccc(S(C)(=N)=O)cc12` (stereo partly drawn) [Compound 70, (2S,4R)-1-(2-(3-Acetyl-5-(S-methylsulfonimidoyl)-1H-indol-1-yl)acetyl)-N-(6-bromopyridin-2-yl)-4-fluoropyrrolidine-2-carboxamide hydrochloride] was tested, and the pIC50 (Table 3) was > 6.00.
`NC(=O)c1nn(CC(=O)N2C[C@H](F)C[C@H]2C(=O)Nc2cccc(-c3n[nH]c4ccsc34)c2F)c2ccccc12` [Compound 71, 1-(2-((2S,4R)-4-Fluoro-2-((2-fluoro-3-(1H-thieno[3,2-c]pyrazol-3-yl)phenyl)carbamoyl)pyrrolidin-1-yl)-2-oxoethyl)-1H-indazole-3-carboxamide] was tested, and the pIC50 (Table 3) was > 6.00.
With `Cc1cc2c(s1)c(C(=N)N)nn2CC(=O)N1C[C@H](F)C[C@H]1C(=O)Nc1cccc(-c2ccccc2Cl)c1F` [Compound 73, (2S,4R)-1-(2-(3-carbamimidoyl-5-methyl-1H-thieno[3,2-c]pyrazol-1-yl)acetyl)-N-(2′-chloro-2-fluorobiphenyl-3-yl)-4-fluoropyrrolidine-2-carboxamide] the pIC50 (Table 3) was > 6.00.
In the case of `COC(=O)c1cc(-c2cccc(NC(=O)[C@@H]3C[C@@H](F)CN3C(=O)Cn3nc(C(N)=O)c4ccccc43)c2F)cc2[nH]c(NC(=O)OC(C)(C)C)nc12` [Compound 75, methyl 2-((tert-butoxycarbonyl)amino)-6-(3-((2S,4R)-1-(2-(3-carbamoyl-1H-indazol-1-yl)acetyl)-4-fluoropyrrolidine-2-carboxamido)-2-fluorophenyl)-1H-benzo[d]imidazole-4-carboxylate], the pIC50 (Table 4) was < 5.00.
`COC(=O)c1cc(-c2cccc(NC(=O)[C@@H]3C[C@@H](F)CN3C(=O)Cn3nc(C(N)=O)c4ccccc43)c2F)cc2[nH]c(N)nc12` [Compound 76, methyl 2-amino-6-(3-((2S,4R)-1-(2-(3-carbamoyl-1H-indazol-1-yl)acetyl)-4-fluoropyrrolidine-2-carboxamido)-2-fluorophenyl)-1H-benzo[d]imidazole-4-carboxylate] was tested, and the pIC50 (Table 4) was > 6.00.
For `NC(=O)c1nn(CC(=O)N2C[C@H](F)C[C@H]2C(=O)Nc2cccc(-c3cc(C(=O)O)c4nc(N)[nH]c4c3)c2F)c2ccccc12` [Compound 77, 2-Amino-6-(3-((2S,4R)-1-(2-(3-carbamoyl-1H-indazol-1-yl)acetyl)-4-fluoropyrrolidine-2-carboxamido)-2-fluorophenyl)-1H-benzo[d]imidazole-4-carboxylic acid hydrochloride], the pIC50 (Table 4) was 5.00 to 6.00.
With `NC(=O)c1cc(O)cc(CC(=O)N2C[C@H](F)C[C@H]2C(=O)Nc2cccc(-c3ccccc3Cl)c2F)c1` [Compound 78, (2S,4R)-1-(2-(3-carbamoyl-5-hydroxyphenyl)acetyl)-N-(2′-chloro-2-fluoro-[1,1′-biphenyl]-3-yl)-4-fluoropyrrolidine-2-carboxamide] the pIC50 (Table 4) was > 6.00.
With `CC(=O)c1nn(CC(=O)N2C[C@H](F)C[C@H]2C(=O)Nc2cccc(-c3cc(C(=O)O)c4nc[nH]c4c3)c2F)c2ccccc12` [Compound 80, 6-(3-((2S,4R)-1-(2-(3-acetyl-1H-indazol-1-yl)acetyl)-4-fluoropyrrolidine-2-carboxamido)-2-fluorophenyl)-1H-benzo[d]imidazole-4-carboxylic acid] the pIC50 (Table 4) was > 6.00.
For `COC(=O)Nc1nc2ccc(-c3cccc(NC(=O)[C@@H]4C[C@@H](F)CN4C(=O)Cn4nc(C(C)=O)c5ccccc54)c3F)c(Cl)c2[nH]1` [Compound 81, methyl (6-(3-((2S,4R)-1-(2-(3-acetyl-1H-indazol-1-yl)acetyl)-4-fluoropyrrolidine-2-carboxamido)-2-fluorophenyl)-7-chloro-1H-benzo[d]imidazol-2-yl)carbamate], the pIC50 (Table 4) was > 6.00.
`CC(=O)c1nn(CC(=O)N2C[C@H](F)C[C@H]2C(=O)Nc2cccc(-c3ccc4c(c3)CCC(=O)N4)c2F)c2ccccc12` [Compound 82, (2S,4R)-1-(2-(3-acetyl-1H-indazol-1-yl)acetyl)-4-fluoro-N-(2-fluoro-3-(2-oxo-1,2,3,4-tetrahydroquinolin-6-yl)phenyl)pyrrolidine-2-carboxamide] was tested, and the pIC50 (Table 4) was > 6.00.
For `CC(=O)c1nn(CC(=O)N2C[C@H](F)C[C@H]2C(=O)Nc2cccc(-c3ccc4nccnc4c3)c2F)c2ccccc12` [Compound 83, (2S,4R)-1-(2-(3-acetyl-1H-indazol-1-yl)acetyl)-4-fluoro-N-(2-fluoro-3-(quinoxalin-6-yl)phenyl)pyrrolidine-2-carboxamide], the pIC50 (Table 4) was > 6.00.
`CC(=O)c1nn(CC(=O)N2C[C@H](F)C[C@H]2C(=O)Nc2cccc(-c3ccc4ncn(CCN)c4c3Cl)c2F)c2ccccc12` [Compound 84, (2S,4R)-1-(2-(3-acetyl-1H-indazol-1-yl)acetyl)-N-(3-(1-(2-aminoethyl)-7-chloro-1H-benzo[d]imidazol-6-yl)-2-fluorophenyl)-4-fluoropyrrolidine-2-carboxamide] was tested, and the pIC50 (Table 4) was 5.00 to 6.00.
With `CC(=O)c1nn(CC(=O)N2C[C@H](F)C[C@H]2C(=O)Nc2cccc(-c3ccc4[nH]ccc4c3)c2F)c2ccccc12` [Compound 85, (2S,4R)-1-(2-(3-acetyl-1H-indazol-1-yl)acetyl)-4-fluoro-N-(2-fluoro-3-(1H-indol-5-yl)phenyl)pyrrolidine-2-carboxamide] the pIC50 (Table 4) was > 6.00.
With `CC(=O)c1nn(CC(=O)N2[C@@H]3C[C@@H]3C[C@H]2C(=O)Nc2cccc(-c3cc(Cl)c4[nH]ccc4c3)c2F)c2ccccc12` [Compound 86, (1R,3S,5R)-2-(2-(3-acetyl-1H-indazol-1-yl)acetyl)-N-(3-(7-chloro-1H-indol-5-yl)-2-fluorophenyl)-2-azabicyclo[3.1.0]hexane-3-carboxamide] the pIC50 (Table 4) was < 5.00.
`NC(=O)c1nn(CC(=O)N2C[C@H](F)C[C@H]2C(=O)Nc2cccc(-c3ccc4c(c3)NC(=O)C4)c2F)c2ccccc12` [Compound 88, 1-(2-((2S,4R)-4-fluoro-2-((2-fluoro-3-(2-oxoindolin-6-yl)phenyl)carbamoyl)pyrrolidin-1-yl)-2-oxoethyl)-1H-indazole-3-carboxamide] was tested, and the pIC50 (Table 4) was > 6.00.
In the case of `N#CNC(=O)c1ccc(Cl)c(-c2cccc(NC(=O)[C@@H]3C[C@@H](F)CN3C(=O)Cn3nc(C(N)=O)c4ccccc43)c2F)c1` [Compound 89, 1-(2-((2S,4R)-2-((2′-chloro-5′-(cyanocarbamoyl)-2-fluoro-[1,1′-biphenyl]-3-yl)carbamoyl)-4-fluoropyrrolidin-1-yl)-2-oxoethyl)-1H-indazole-3-carboxamide], the pIC50 (Table 4) was > 6.00.
In the case of `NC(=O)c1nn(CC(=O)N2C[C@H](F)C[C@H]2C(=O)Nc2cccc(-c3cc(Cl)c4[nH]ccc4c3)c2F)c2ccccc12` [Compound 90, 1-(2-((2S,4R)-2-((3-(7-chloro-1H-indol-5-yl)-2-fluorophenyl)carbamoyl)-4-fluoropyrrolidin-1-yl)-2-oxoethyl)-1H-indazole-3-carboxamide], the pIC50 (Table 4) was > 6.00.
`NC(=O)c1nn(CC(=O)N2C[C@H](F)C[C@H]2C(=O)Nc2cccc(-c3ccc4c(c3)C(=O)NC4)c2F)c2ccccc12` [Compound 91, 1-(2-((2S,4R)-4-fluoro-2-((2-fluoro-3-(3-oxoisoindolin-5-yl)phenyl)carbamoyl)pyrrolidin-1-yl)-2-oxoethyl)-1H-indazole-3-carboxamide] was tested, and the pIC50 (Table 4) was > 6.00.
In the case of `NC(=O)c1nn(CC(=O)N2C[C@H](F)C[C@H]2C(=O)Nc2cccc(-c3ccc4oc(=O)[nH]c4c3)c2F)c2ccccc12` [Compound 92, 1-(2-((2S,4R)-4-fluoro-2-((2-fluoro-3-(2-oxo-2,3-dihydrobenzo[d]oxazol-5-yl)phenyl)carbamoyl)pyrrolidin-1-yl)-2-oxoethyl)-1H-indazole-3-carboxamide], the pIC50 (Table 4) was > 6.00.
In the case of `NC(=O)c1nn(CC(=O)N2C[C@H](F)C[C@H]2C(=O)Nc2cccc(-c3ccc4c(c3)C(=O)CCC4)c2F)c2ccccc12` [Compound 93, 1-(2-((2S,4R)-4-fluoro-2-((2-fluoro-3-(8-oxo-5,6,7,8-tetrahydronaphthalen-2-yl)phenyl)carbamoyl)pyrrolidin-1-yl)-2-oxoethyl)-1H-indazole-3-carboxamide], the pIC50 (Table 4) was > 6.00.
For `CC(=O)c1nn(CC(=O)N2C[C@H](F)C[C@H]2C(=O)Nc2cccc(-c3cc(C(=O)NC#N)ccc3Cl)c2F)c2ccccc12` [Compound 95, (2S,4R)-1-(2-(3-acetyl-1H-indazol-1-yl)acetyl)-N-(2′-chloro-5′-(cyanocarbamoyl)-2-fluoro-[1,1′-biphenyl]-3-yl)-4-fluoropyrrolidine-2-carboxamide], the pIC50 (Table 4) was > 6.00.
With `CC(=O)c1nn(CC(=O)N2C[C@H](F)C[C@H]2C(=O)Nc2cccc(-c3ccc4c(c3)NC(=O)NC4)c2F)c2ccccc12` [Compound 96, (2S,4R)-1-(2-(3-acetyl-1H-indazol-1-yl)acetyl)-4-fluoro-N-(2-fluoro-3-(2-oxo-1,2,3,4-tetrahydroquinazolin-7-yl)phenyl)pyrrolidine-2-carboxamide] the pIC50 (Table 4) was > 6.00.
For `CC(=O)c1nn(CC(=O)N2C[C@H](F)C[C@H]2C(=O)Nc2cccc(-c3nc(Cl)c4nc[nH]c4n3)c2F)c2ccccc12` [Compound 99, (2S,4R)-1-(2-(3-acetyl-1H-indazol-1-yl)acetyl)-N-(3-(6-chloro-9H-purin-2-yl)-2-fluorophenyl)-4-fluoropyrrolidine-2-carboxamide], the pIC50 (Table 4) was > 6.00.
